One assay deals with T1, PIG-W (Homo sapiens, UniProt Q7Z7B1).
T1 construct: expressed in transfected cells; host or cells: S. cerevisiae BY4741-derived gwt1 deletion shuttle strain carrying a pAG415GPD-based PIG-W plasmid
T1 sequence (Q7Z7B1 1-504): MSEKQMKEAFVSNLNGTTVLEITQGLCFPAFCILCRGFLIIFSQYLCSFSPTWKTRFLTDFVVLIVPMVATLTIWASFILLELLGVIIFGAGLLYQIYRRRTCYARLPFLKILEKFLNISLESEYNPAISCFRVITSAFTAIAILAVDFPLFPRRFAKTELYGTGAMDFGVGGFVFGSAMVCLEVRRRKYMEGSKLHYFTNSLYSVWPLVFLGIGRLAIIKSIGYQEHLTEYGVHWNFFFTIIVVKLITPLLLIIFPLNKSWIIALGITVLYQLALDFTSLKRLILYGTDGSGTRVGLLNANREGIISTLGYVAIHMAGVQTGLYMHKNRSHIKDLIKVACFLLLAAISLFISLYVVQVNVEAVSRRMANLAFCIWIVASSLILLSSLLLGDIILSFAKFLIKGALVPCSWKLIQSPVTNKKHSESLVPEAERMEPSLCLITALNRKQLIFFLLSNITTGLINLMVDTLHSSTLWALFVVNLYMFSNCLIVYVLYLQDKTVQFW
Kind of assay: In vitro acylation assay with membranes of the PIG-W strain. Format: biochemical. The conditions noted are these: membranes of low copy plasmid strain. The protocol: Photographs were taken after 24 hours. DMSO-treated cultures have large, dense colonies of C. albicans which are not present in gepinacin-treated cultures. (B) Anti-fungal susceptibility testing of S. cerevisiae strains in which the endogenous GWT1 gene had been replaced by plasmid-driven expression of the human gene (PIG-W), or the fungal gene (GWT1). CEN plasmids are low copy, […] plasmids are high copy.
Experiments were performed using a previously published protocol (Umemara, et al. (2003) J Biol Chem 278, 23639-23647) with the following modifications; UDP[^3H]GlcNAc was used instead of [^14C] and TLC plates were imaged by autoradiography. Lipid extracts were treated overnight with phosphatidylinositol-specific phospholipase C to confirm that the band identified as GlcN-(acyl)PI was resistant to cleavage (data not shown).

For another assay, the system named is Aspergillus terreus. Kind of assay: Antifungal susceptibility testing (mold, MIC50/MIC80). It counts as cell-based. Here is the method:
Sensitivity to gepinacin was determined in 96-well, flat bottom microtiter plates using a modification of the NCCLS broth microdilution protocol CLS M27-A3 and RPMI as culture medium. Fungi were inoculated at ˜10^3 cells per ml and incubated for 48 hours at 37° C. after which plates were sealed, shaken and the optical density read at 600 nm (OD600) on a Tecan Safire 2 plate reader. All samples were run in duplicate or triplicate and assays were repeated at least once. Results are expressed as fraction of growth in the absence of compound and the mean and standard deviation are plotted. For the mold A. terreus, inoculum was 10^4 cells per ml and plates were incubated at 35° C. for 48 hours in the dark. Plates were then visually scored as specified by CLSI document M38-A2 to determine the MIC50 and MIC80.

Each structure is given as a SMILES string.

Experimental findings from patent US9505735B2, “Compounds for treating infectious diseases” (Whitehead Institute for Biomedical Research, priority 2012, dated 2016) are described below.

As to `COc1ccc(NC(=O)COc2cccc(OCC(C)C)c2)cc1` [gepinacin], the “activity of the human enzyme (GlcN-(acyl)PI formation)” value at PIG-W was “not inhibited”. In addition, in the assay with Aspergillus terreus, the growth inhibition entry was “inhibited the growth”.
